Source: paper PMC11793850, “Insights into Molecular Interactions and Biological Effect of Natural Stilbenoids at the TRPA1 Ion Channel” (Chemmedchem, 2024)

Experiments:
[1] = target: T1, hTRPA1 (Homo sapiens, UniProt O75762); test: FLIPR calcium assay (agonism) in HEK293 cells with inducible hTRPA1; non-expressing HEK293 control; format: cell-based
T1 construct: gene TRPA1

[2] = target: T2, rTRPA1 (Rattus norvegicus, UniProt Q6RI86); test: FLIPR calcium assay in HEK293 cells with inducible rTRPA1 ([…] of maximal AITC response at […]; desensitization to AITC); format: cell-based
T2 construct: gene Trpa1
T2 sequence (Q6RI86 whole entry): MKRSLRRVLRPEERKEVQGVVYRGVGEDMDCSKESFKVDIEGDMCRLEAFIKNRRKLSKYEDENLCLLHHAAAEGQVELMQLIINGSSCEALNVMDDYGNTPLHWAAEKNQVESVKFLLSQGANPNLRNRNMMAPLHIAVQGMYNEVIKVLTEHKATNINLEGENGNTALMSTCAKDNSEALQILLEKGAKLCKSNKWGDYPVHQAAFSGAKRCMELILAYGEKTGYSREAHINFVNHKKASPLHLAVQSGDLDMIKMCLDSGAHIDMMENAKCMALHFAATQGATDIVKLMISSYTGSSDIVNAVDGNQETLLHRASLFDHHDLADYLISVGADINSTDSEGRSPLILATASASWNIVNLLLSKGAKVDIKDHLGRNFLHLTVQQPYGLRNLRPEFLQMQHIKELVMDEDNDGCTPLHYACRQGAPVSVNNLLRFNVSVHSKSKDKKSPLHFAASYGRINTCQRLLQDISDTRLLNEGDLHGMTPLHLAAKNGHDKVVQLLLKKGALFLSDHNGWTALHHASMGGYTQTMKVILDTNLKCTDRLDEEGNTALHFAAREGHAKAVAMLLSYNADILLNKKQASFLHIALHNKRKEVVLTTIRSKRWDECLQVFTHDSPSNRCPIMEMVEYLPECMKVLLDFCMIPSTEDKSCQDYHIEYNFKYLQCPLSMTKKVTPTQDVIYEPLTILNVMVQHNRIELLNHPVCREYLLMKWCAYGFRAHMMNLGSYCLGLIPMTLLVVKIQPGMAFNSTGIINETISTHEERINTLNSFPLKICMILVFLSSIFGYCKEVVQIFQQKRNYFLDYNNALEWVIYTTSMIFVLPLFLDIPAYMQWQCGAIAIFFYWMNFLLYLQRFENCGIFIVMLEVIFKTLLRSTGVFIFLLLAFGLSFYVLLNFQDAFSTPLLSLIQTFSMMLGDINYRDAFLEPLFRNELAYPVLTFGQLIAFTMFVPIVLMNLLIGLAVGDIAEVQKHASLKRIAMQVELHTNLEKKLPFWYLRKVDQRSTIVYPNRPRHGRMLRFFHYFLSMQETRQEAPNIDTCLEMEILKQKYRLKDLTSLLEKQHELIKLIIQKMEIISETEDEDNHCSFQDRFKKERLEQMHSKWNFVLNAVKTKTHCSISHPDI

T1 sequence (O75762 whole entry): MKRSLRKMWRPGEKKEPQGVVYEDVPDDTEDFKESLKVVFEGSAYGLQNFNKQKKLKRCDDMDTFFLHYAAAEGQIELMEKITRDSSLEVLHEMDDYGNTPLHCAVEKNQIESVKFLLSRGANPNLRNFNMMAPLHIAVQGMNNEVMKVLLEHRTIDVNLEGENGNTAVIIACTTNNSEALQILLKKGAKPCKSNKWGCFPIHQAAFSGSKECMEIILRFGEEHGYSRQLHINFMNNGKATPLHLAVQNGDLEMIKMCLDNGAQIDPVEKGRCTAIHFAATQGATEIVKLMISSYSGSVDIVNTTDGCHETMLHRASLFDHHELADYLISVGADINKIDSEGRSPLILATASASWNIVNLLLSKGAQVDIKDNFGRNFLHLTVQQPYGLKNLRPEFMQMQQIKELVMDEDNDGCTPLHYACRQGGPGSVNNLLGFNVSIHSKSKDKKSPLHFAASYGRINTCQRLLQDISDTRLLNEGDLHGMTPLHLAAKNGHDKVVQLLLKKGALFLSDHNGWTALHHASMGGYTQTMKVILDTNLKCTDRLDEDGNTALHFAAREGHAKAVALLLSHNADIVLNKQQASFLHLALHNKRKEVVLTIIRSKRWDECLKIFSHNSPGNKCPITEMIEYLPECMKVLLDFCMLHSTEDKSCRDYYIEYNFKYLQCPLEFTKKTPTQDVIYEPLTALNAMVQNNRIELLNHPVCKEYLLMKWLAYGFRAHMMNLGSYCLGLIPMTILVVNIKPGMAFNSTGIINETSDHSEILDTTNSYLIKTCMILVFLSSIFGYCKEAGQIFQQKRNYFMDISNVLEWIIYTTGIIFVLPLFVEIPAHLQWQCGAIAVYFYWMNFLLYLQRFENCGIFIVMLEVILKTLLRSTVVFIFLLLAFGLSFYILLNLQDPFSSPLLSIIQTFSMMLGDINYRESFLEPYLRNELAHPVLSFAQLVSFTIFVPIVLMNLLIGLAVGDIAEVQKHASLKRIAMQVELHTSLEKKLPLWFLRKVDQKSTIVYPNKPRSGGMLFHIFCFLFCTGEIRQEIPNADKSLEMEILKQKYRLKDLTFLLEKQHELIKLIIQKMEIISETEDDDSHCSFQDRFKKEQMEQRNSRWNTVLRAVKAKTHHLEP

EC50 [1] | Compound | Emax at 100 µM [2]
12 ± 1.1 µM | Oc1cc(O)cc(/C=C/c2ccccc2)c1 [Pinosylvin] | 
11.2 ± 0.8 µM | COc1cc(O)cc(/C=C/c2ccccc2)c1 [pinosylvin monomethyl ether] | 

Compound | EC50 [1] | Emax at 100 µM [2]
Oc1ccc(/C=C/c2cc(O)cc(O)c2)cc1 [Resveratrol] | 3.2 ± 0.2 µM | 35%
